# Experimental data published in patent US10071109B2, “Predictive biomarker for hypoxia-activated prodrug therapy” (Molecular Templates, Inc., priority 2013, dated 2018).
# How the values were obtained:
# [1] = test system: GL1208 gall bladder cancer PDX xenograft model; assay: TH-302 efficacy in GL1208 gall bladder cancer PDX xenograft model; type: in vivo, mice
# Description: (§1) A series of tumor xenograft experiments was initiated. In these gall bladder and NSCLC tumor experiments, patient-derived tumor xenograft (PDX) models were selected since these models more accurately mimic the histology and genetics of actual human tumors as compared with the cell line derived models. More specifically, the original tumor sources for these human tumor xenograft models were patient-derived (PDX) gall bladder and lung carcinomas that have been maintained subcutaneously in nude mice for >3 passages. When grown to 500-700 mm^3, the tumors were harvested for inoculation by selecting and slicing (into 3×3×3 mm^3 fragments) well grown portions of tumors. These tumor fragments were implanted subcutaneously in the right flank of athymic nu/nu mice (female, 6-8 weeks old (18-20 g)) for the efficacy experiments. All of the procedures for tumor harvesting, inoculation, animal dosing, and tumor and body weight measurement were conducted in a sterile hoods.
# (§2) For the efficacy studies, when the average tumor size reached 100-200 mm^3, mice were randomly grouped into vehicle and TH-302 treatment groups. Each group contained 8-10 mice. […] Tumor volumes were measured twice weekly.
# (§3) %ΔT/ΔC was calculated with the formula below: %ΔT/ΔC=((TVf−TVi)/(TVfCtrl−TViCtrl))×100% where TV=tumor volume, f=final, I=initial, and Ctrl=control group. […]
# [2] = test system: GL0608 gall bladder cancer PDX xenograft model; assay: TH-302 efficacy in GL0608 gall bladder cancer PDX xenograft model; type: in vivo, mice
# Description: as §1
# (§4) For the efficacy studies, when the average tumor size reached 100-200 mm^3, mice were randomly grouped into vehicle and TH-302 treatment groups. Each group contained 8-10 mice. Since the tumor volume could affect the effectiveness of any given treatment, a randomized block design was used in the group assignment based upon their tumor volumes. […] After randomization, mice were treated with either vehicle or TH-302 i.p. 60 mg/kg twice per week (Q2W) for approximately 5-8 weeks based on tumor grow rate and response. The precise dosing periods are described in the legends of FIGS. 1 and 2 above. Tumor volumes were measured twice weekly.
# (§5) %ΔT/ΔC was calculated with the formula below: %ΔT/ΔC=((TVf−TVi)/(TVfCtrl−TViCtrl))×100% where TV=tumor volume, f=final, I=initial, and Ctrl=control group.
# (§6) If tumor regression was observed: %ΔT/ΔC=(TVf−TVi)/TVi)×100%=% Regression=(1−(TVf/TVi))×100% where TV=tumor volume, f=final, I=initial, and Ctrl=control group. […]
# [3] = test system: panel of 11 cancer cell-line derived models; settings: previous tumor xenograft studies; cited from earlier work
# [4] = Body weights of mice treated with TH-302 in PDX xenograft studies; type: in vivo; settings: 60 mg/kg i.p. Q2W, data not shown
# Description: as §1
# For the efficacy studies, when the average tumor size reached 100-200 mm^3, mice were randomly grouped into vehicle and TH-302 treatment groups. Each group contained 8-10 mice. Since the tumor volume could affect the effectiveness of any given treatment, a randomized block design was used in the group assignment based upon their tumor volumes. […] Tumor volumes were measured twice weekly.
# [5] = test system: LU1245 NSCLC PDX xenograft model; assay: TH-302 efficacy in LU1245 NSCLC PDX xenograft model; type: in vivo, mice
# Description: as §1, §4, §5, §6
# [6] = test system: LU1380 NSCLC PDX xenograft model; assay: TH-302 efficacy in LU1380 NSCLC PDX xenograft model; type: in vivo, mice
# Description: as §1, §2, §3
# [7] = test system: LU2505 NSCLC PDX xenograft model; assay: TH-302 efficacy in LU2505 NSCLC PDX xenograft model; type: in vivo, mice
# Description: as §1, §2, §3
# [8] = test system: LU0387 NSCLC PDX xenograft model; assay: TH-302 efficacy in LU0387 NSCLC PDX xenograft model; type: in vivo, mice
# Description: as §1, §2, §3
# [9] = test system: LU0357 NSCLC PDX xenograft model; assay: TH-302 efficacy in LU0357 NSCLC PDX xenograft model; type: in vivo, mice
# Description: as §1, §2, §3
# [10] = test system: LU1235 NSCLC PDX xenograft model; assay: TH-302 efficacy in LU1235 NSCLC PDX xenograft model; type: in vivo, mice
# Description: as §1, §2, §3
# [11] = test system: LU1304 NSCLC PDX xenograft model; assay: TH-302 efficacy in LU1304 NSCLC PDX xenograft model; type: in vivo, mice
# Description: as §1, §2, §3
smiles,measurement,setting,value
"Cn1c(COP(=O)(NCCBr)NCCBr)cnc1[N+](=O)[O-] [TH-302, (2-bromoethyl)({[(2-bromoethyl)amino][(2-nitro-3-methylimidazol-4-yl)methoxy]phosphoryl})amine]",%ΔT/ΔC (TH-302),"[1]; GL1208, gall bladder, adenosquamous, TH-302 60 mg/kg i.p. twice per week (Q2W), 49 days",62%
same,"antitumor activity (tumor growth measurements), in words","[1]; GL1208, 60 mg/kg i.p. Q2W, after 49 days treatment",minor tumor growth inhibition
same,%ΔT/ΔC (TH-302),"[2]; GL0608, gall bladder, adenocarcinoma, TH-302 60 mg/kg i.p. twice per week (Q2W), 59 days",−100%
same,mice with a complete response (lack of tumor re-growth following regression),"[2]; GL0608, 60 mg/kg i.p. Q2W for 59 days, at day 99, final tumor measurement",10/10
same,"antitumor activity (tumor growth measurements), in words","[2]; GL0608, 60 mg/kg i.p. Q2W, treatment period 59 days",highly sensitive
same,monotherapy efficacy (tumor growth delays),[3],modest
same,changes in the body weights of the mice treated with TH-302,"[4]; NSCLC PDX studies (LU1245, LU1380)",No significant changes
same,changes in the body weights of the mice treated with TH-302,"[4]; gall bladder PDX studies (GL0608, GL1208)",No significant changes
same,%ΔT/ΔC (TH-302),"[5]; LU1245, NSCLC EGFR wt, TH-302 60 mg/kg i.p. twice per week (Q2W), 49 days",−42%
same,"antitumor activity (tumor growth measurements), in words","[5]; LU1245, 60 mg/kg i.p. Q2W, 49 day dosing period",highly sensitive
same,mice with a complete response (lack of tumor re-growth following regression),"[5]; LU1245, 60 mg/kg i.p. Q2W, 49 day dosing, at day 73 (14 days post treatment termination)",5/10
same,%ΔT/ΔC (TH-302),"[6]; LU1380, NSCLC EGFR wt, TH-302 60 mg/kg i.p. twice per week (Q2W), 42 days",86%
same,"antitumor activity (tumor growth measurements), in words","[6]; LU1380, 60 mg/kg i.p. Q2W, after 42 days treatment",minor tumor growth inhibition
same,%ΔT/ΔC (TH-302),"[7]; LU2505, NSCLC EGFR wt, TH-302 60 mg/kg i.p. twice per week (Q2W), approximately 5-8 weeks",34%
same,"antitumor activity, in words","[7]; LU2505, similar to LU1380",minor level of efficacy
same,%ΔT/ΔC (TH-302),"[8]; LU0387, NSCLC EGFR mt, TH-302 60 mg/kg i.p. twice per week (Q2W), approximately 5-8 weeks",84%
same,"antitumor activity, in words","[8]; LU0387, similar to LU1380",minor level of efficacy
same,%ΔT/ΔC (TH-302),"[9]; LU0357, NSCLC EGFR mt, TH-302 60 mg/kg i.p. twice per week (Q2W), approximately 5-8 weeks",93%
same,"antitumor activity, in words","[9]; LU0357, similar to LU1380",minor level of efficacy
same,%ΔT/ΔC (TH-302),"[10]; LU1235, NSCLC EGFR mt, TH-302 60 mg/kg i.p. twice per week (Q2W), approximately 5-8 weeks",74%
same,"antitumor activity, in words","[10]; LU1235, similar to LU1380",minor level of efficacy
same,%ΔT/ΔC (TH-302),"[11]; LU1304, NSCLC EGFR wt, TH-302 60 mg/kg i.p. twice per week (Q2W), approximately 5-8 weeks",93%
same,"antitumor activity, in words","[11]; LU1304, similar to LU1380",minor level of efficacy
